{
  "source": "patent US20180244653A1",
  "about": "“SELECTIVE ALPHA-7 NICOTINIC RECEPTOR AGONISTS AND METHODS FOR MAKING AND USING THEM” (THE REGENTS OF THE UNIVERSITY OF CALIFORNIA, priority 2015, published 2018)",
  "key": {"[1]": {"target": "α7/5HT3A chimera receptor (hα7/m5HT3A), used for α7-nAChRs (UniProt P23979+P36544, M226I/T225I)", "sequence (P36544+P23979 fused P36544:T225I/P36544:M226I)": "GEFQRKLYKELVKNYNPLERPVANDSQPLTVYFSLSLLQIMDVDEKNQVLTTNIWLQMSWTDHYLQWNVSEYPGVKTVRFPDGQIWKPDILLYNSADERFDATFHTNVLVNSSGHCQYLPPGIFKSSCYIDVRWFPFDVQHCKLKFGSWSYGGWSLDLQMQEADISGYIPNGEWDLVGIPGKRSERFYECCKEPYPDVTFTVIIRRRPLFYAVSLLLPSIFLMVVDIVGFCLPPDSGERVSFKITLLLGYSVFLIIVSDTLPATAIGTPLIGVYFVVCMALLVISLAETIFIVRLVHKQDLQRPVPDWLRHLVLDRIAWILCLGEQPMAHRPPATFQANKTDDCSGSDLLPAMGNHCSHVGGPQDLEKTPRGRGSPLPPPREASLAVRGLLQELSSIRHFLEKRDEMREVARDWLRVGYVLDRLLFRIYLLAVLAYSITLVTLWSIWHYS", "test": "Intact cell competitive radioligand binding assay ([3H]-(±)-epibatidine, SPA), LGIC-CNiFERs", "conditions": "read-out: Kd ± SD, α7-nAChRs; >10 = did not pass initial screen at 10 μM", "quoted_text": "All synthesized compounds were screened for the binding potential with cell based neurotransmitter fluorescent engineered reporters (CNiFERs) expressed α7-nAChRs, α4β2-nAChRs, and 5HT3A receptors. The whole cell binding assay was performed by competitive radioligand binding assay (RBA) using [^3H]-(±)-epibatidine for α7- and α4β2-nAChRs and [^3H]-granisetron for 5HT3A receptors. […] Compounds at 10 μM concentration that dissociated [^3H]-(±)-epibatidine or [^3H]-granisetron binding to LGIC-CNiFERs more than 50% were further determined over a range of concentrations for Kd values.\nCell lines expressing specific subtypes of receptors and a genetically encoded fluorescence resonance energy transfer (FRET)-based calcium sensor (TN-XXL) were prepared^29. The human α7-nAChRs and α4β2-nAChRs were expressed in HEKtsA201 cells, whereas hα7/m5HT3A chimeric receptors and mouse 5HT3A receptors were expressed in HEK293 cells. Cells were cultured in DMEM (Corning, Cellgro, Manassas, Va.) supplemented with 10% FBS (Gibco, Life Technologies, Grand Island, N.Y.) and 1% glutamine (Gibco, Life Technologies, Grand Island, N.Y.) and incubated at 37° C. with 10% CO2.\nCell based neurotransmitter fluorescent engineered reporters (CNiFERs) expressing Ca^2+ permeable LGIC receptors were used to determine the Kd values of the compounds. Cells were harvested by centrifugation (Beckman coulter, Brea, Calif.) at 500 rpm for 5 min, and then mixed and incubated on ice for 30 min, after counting, with Wheat Germ Agglutinin SPA beads (20 mg/mL) (Perkin Elmer, Waltham, Mass.) in Hank's Balanced Salt Solution (HBSS) (Gibco, Life Technologies, Grand Island, N.Y.) at the specified concentrations: 1) hα7/m5HT3A chimera-TN-XXL: 200K cells/well, 1 mg/mL SPA beads 2) hα4β2-TN-XXL: 100K cells/well, 0.5 mg/mL SPA beads, and 3) m5HT3A-TN-XXL: 100K cells/well, 1 mg/mL SPA beads. The compounds were initially screened at 10 μM final concentration. Nonspecific binding was measured by using 100 μM of MLA (Tocris Bioscience, Bristol, UK) for α7/5HT3A chimeric receptors, 10 μM of varenicline (Tocris Bioscience, Bristol, UK) for α4β2-nAChR, and 300 nM of tropisetron (Tocris Bioscience, Bristol, UK) for 5HT3A receptors. After that, the radioactive ligands were added at nM final concentration of [^3H]-(±)-epibatidine for α7/5HT3A chimeric receptors, 5 nM of [^3H]-(±)-epibatidine for α4β2-nAChR, and 10 nM of [^3H]-granisetron for 5HT3A receptors. The mixtures were measured on the Wallac 1450 MicroBeta® Trilux with 1 h intervals for a total of measurements. […] Mean Kd values and standard deviations were calculated from at least 3 independent experiments."}, "5HT3A receptors": {"target": "T1, 5HT3A receptors (Mus musculus, UniProt P23979)", "T1 construct": "expressed in transfected cells; host or cells: HEK293 cells co-expressing TN-XXL", "T1 sequence (P23979 24-489)": "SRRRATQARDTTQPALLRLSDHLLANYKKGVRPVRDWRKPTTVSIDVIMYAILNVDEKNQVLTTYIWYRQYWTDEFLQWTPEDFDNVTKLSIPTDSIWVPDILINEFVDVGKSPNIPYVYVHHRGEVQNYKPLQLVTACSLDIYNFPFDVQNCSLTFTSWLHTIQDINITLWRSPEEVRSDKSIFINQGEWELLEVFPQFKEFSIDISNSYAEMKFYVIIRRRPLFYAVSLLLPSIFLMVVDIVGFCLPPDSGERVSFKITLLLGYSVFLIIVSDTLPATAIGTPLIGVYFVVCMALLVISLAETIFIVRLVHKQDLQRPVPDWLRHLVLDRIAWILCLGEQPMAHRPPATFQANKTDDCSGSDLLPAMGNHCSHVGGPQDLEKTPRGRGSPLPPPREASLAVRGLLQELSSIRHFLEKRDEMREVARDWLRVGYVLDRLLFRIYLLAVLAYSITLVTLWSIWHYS", "test": "Intact cell competitive radioligand binding assay ([3H]-granisetron, SPA), LGIC-CNiFERs", "conditions": ">10 = did not pass initial screen at 10 μM; read-out: Kd ± SD, 5HT3A"}, "[2]": {"system": "physiologically induced amnesia mice", "test": "ORT with 24 h time delay (natural memory loss)", "format": "in vivo", "conditions": "i.p.; for Discrimination index / cognition enhancement, ORT time delay vs control group: 24 h delay; for Minimum effective dose, RT^§: physiologically induced amnesia (memory retention) model, ICR mice", "description": "Both compounds were further evaluated on a physiologic amnesic model by using ORT with 24 h time delay to induce natural memory loss in mice. The appropriate time delay causing amnesia was initially selected by varying delay times (24, 48, and 72 h) between sample and test phase that have identical and different objects, respectively. […] Therefore, 24 h was used as the time delay between sample and test phase.\nFIG. 27 illustrates exploration time to familiar (F) and novel (N) objects in test phase of ORT following a time delay. Each mouse was allowed to explore an open field apparatus for 5 min in a habituation phase one day before a sample phase. In the test day, vehicle (SH) and test compounds IND8, QND8 and PNU were injected 1 h before measurement of exploration time. Each mouse was allowed to explore 2 identical objects in the sample phase for 5 min. On the next day (24 h), one of the objects was changed to a new one and the mouse was allowed to explore these objects for 5 min. The exploration time of these objects was recorded. Data are presented as means±SE, n=6-8 mice/group. **p<0.01, ***p<0.001 vs exploration time of familiar object, paired student's t-test.\nThe DI was calculated and compared with the control group to evaluate IND8, QND8, and PNU-282987 enhancement of cognitive function. Data are shown in FIG. 28, which illustrates discrimination index (TN−TF/TN+TF) of each compound in the test phase of ORT with time delay protocol. There was a significant difference in DI (F6,43=6.097, p<0.001, n=6-8 mice/group). **p<0.01, ***p<0.001 vs vehicle group (SH), one-way ANOVA with Fisher's LSD post hoc comparison.\nThe apparatus used in this experiment was the same as ORT test. This experiment was divided into 2 parts directed to dose finding and establishing mechanism of action.\n(§1) For dose finding protocol, the mice were randomly divided into different treatment groups, a control group receiving a vehicle and tested groups receiving PNU-282987 at 3, 10 mg/kg, and IND8, QND8 for 10, 25 μmol/kg, single dose. They were allowed to freely explore the open field apparatus for 5 min for habituation in a day before the experiment (day 1). On the test day (day 2), the test compound was injected 1 h before the sample phase. In this phase, mice were placed in the apparatus to explore two identical objects. On the next day (day 3), one object was changed to a new one and mice were allowed to explore these objects for 5 min in the test phase. For proving cognitive enhancement mediated through α7-nAChRs, the protocol was the same as mentioned above except MLA (3 mg/kg), selective α7-nAChR antagonist, was injected 5 min before test compounds in the sample phase (day 2) to block the cognitive enhancement effect from test compounds. The dose of test compounds is selected from the effective dose from the former experiment. The exploration time of each object was recorded if the nose of mouse came within 3 cm or touched the objects. The discrimination index (DI) was calculated by using (TN−TF)/(TN+TF); TN and TF represented exploration time of new and familiar objects, respectively."}, "[3]": {"system": "physiologically induced amnesia mice", "test": "ORT time delay with MLA pretreatment (mechanism of action)", "format": "in vivo", "conditions": "MLA 3 mg/kg 5 min before test compound 10 μmol/kg", "description": "Methyllycaconitine (MLA) was injected to block the α7-nAChR agonist response. The ORT in natural memory loss mice described above was the study model. […] Each mouse was allowed to explore an open field apparatus for 5 min in a habituation phase. After 24 hours, MLA (3 mg/kg) was injected 5 min before injection of test compounds. After 1 h of injected test compounds, each mouse explored 2 identical objects in the sample phase for 5 min. On the next day, one of the objects was changed to a new one and the mouse was allowed to explore these objects for 5 min. The exploration time of these objects was recorded.\nFIG. 30 illustrates discrimination index (TN−TF/TN+TF) of each compound in the test phase of ORT for proving mechanism of action.\nas §1, with “For proving cognitive enhancement mediated through α7-nAChRs, the protocol was the same as mentioned above except MLA (3 mg/kg), selective α7-nAChR antagonist, was injected 5 min before test compounds in the sample phase (day 2) to block the cognitive enhancement effect from test compounds. The dose of test compounds is selected from the effective dose from the former experiment.” left out"}},
  "note": "Values joined by “and” are separate entries in the source; they are usually repeats but may differ in a detail not shown here. Equal values may be shown once. “Also recorded” adds a separate entry of the source.",
  "data": [
    {"smiles": "Oc1ccc(-c2cn(C3CN4CCC3CC4)nn2)cc1", "note": "(stereo not drawn) [QND8, 3-(4-hydroxyphenyl-1,2,3-triazol-1-yl) quinuclidine]", "values": [
      {"measurement": "Kd", "setting": "[1]", "value": "0.08 µM and 0.081 µM"},
      {"measurement": "Kd", "setting": "5HT3A receptors", "value": "0.54 ± 0.05", "unit": "µM"},
      {"measurement": "Discrimination index / cognition enhancement, ORT time delay vs control group", "setting": "[2]", "value": "able to enhance cognition; also recorded: significantly higher than that of control group"},
      {"measurement": "Minimum effective dose, RT^§", "setting": "[2]", "value": 10, "unit": "µmol/kg"},
      {"measurement": "Cognitive enhancement after MLA pretreatment, ORT time delay", "setting": "[3]", "value": "complete abolition of the cognitive enhancement; also recorded: abolished by MLA"}
    ]},
    {"smiles": "c1cc2cc(-c3cn(C4CN5CCC4CC5)nn3)ccc2[nH]1", "note": "(stereo not drawn) [IND8, 5-((Quinuclid-3-yl)-1H-1,2,3-triazol-4-yl)-1H-indole]", "values": [
      {"measurement": "Kd", "setting": "[1]", "value": 0.12, "unit": "µM"},
      {"measurement": "Kd", "setting": "5HT3A receptors", "value": "0.05 µM and 0.052 µM"},
      {"measurement": "Discrimination index / cognition enhancement, ORT time delay vs control group", "setting": "[2]", "value": "able to enhance cognition; also recorded: significantly higher than that of control group"},
      {"measurement": "Minimum effective dose, RT^§", "setting": "[2]", "value": 10, "unit": "µmol/kg"},
      {"measurement": "Cognitive enhancement after MLA pretreatment, ORT time delay", "setting": "[3]", "value": "complete abolition of the cognitive enhancement; also recorded: abolished by MLA"}
    ]},
    {"smiles": "O=C(N[C@H]1CN2CCC1CC2)c1ccc(Cl)cc1", "note": "[PNU-282987, reference compound]", "values": [
      {"measurement": "Kd", "setting": "[1]", "value": "0.27 ± 0.14", "unit": "µM"},
      {"measurement": "Kd", "setting": "5HT3A receptors", "value": "> 10", "unit": "µM"},
      {"measurement": "Discrimination index / cognition enhancement, ORT time delay vs control group", "setting": "[2]", "value": "able to enhance cognition; also recorded: significantly higher than that of control group"},
      {"measurement": "Minimum effective dose, RT^§", "setting": "[2]", "value": 10, "unit": "µmol/kg"},
      {"measurement": "Cognitive enhancement after MLA pretreatment, ORT time delay", "setting": "[3]", "value": "abolished by MLA"}
    ]}
  ]
}
